One assay relates to EphA4. As to the kind of experiment: ephrin-A1-induced EphA4 clustering assay in cultured hippocampal neurons. In kind it is cell-based. The note with it: dose of 50 μM. The source says:
FIG. 1. Inhibitory effect of small molecule compounds on EphA4 signaling. Inhibitory activity of 22 selected FDA-approved drugs in ephrin-A1-induced EphA4 clusters in cultured hippocampal neurons. n=4 neuronal cell cultures; *p<0.05 vs. Cont; unpaired Student's t-test.
The inhibitory activity of the 22 drugs listed in Table 1 was examined using an ephrin-A1-induced EphA4 clustering assay in cultured hippocampal neurons.

In assay [1] the target is T1, extracellular domain of mouse EphA4 (interaction with ephrin-A1) (Mus musculus, UniProt Q03137).
T1 construct: the extracellular domain of mouse EphA4
T1 sequence (Q03137 20-547 limits assumed): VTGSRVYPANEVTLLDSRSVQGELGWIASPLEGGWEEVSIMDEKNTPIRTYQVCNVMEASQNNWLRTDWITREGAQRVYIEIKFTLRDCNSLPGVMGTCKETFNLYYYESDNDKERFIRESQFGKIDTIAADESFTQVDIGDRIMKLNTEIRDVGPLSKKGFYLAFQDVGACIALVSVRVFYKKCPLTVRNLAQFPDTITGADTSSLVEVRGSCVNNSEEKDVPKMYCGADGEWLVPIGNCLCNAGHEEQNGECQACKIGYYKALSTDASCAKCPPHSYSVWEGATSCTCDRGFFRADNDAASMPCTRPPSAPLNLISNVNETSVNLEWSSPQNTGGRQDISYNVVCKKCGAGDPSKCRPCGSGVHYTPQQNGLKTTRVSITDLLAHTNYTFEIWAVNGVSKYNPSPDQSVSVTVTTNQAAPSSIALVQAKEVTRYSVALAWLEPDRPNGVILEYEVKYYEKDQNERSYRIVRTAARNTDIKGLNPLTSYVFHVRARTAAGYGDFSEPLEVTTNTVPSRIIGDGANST
In words: Dose-response ELISA of the EphA4/ephrin-A1 interaction. In kind it is binding. The note with it: read-out: IC50, inhibition of interaction between extracellular domain of mouse EphA4 and ephrin-A1. The source says:
FIG. 3. […] Dose-response curve of nilotinib against the interaction of mouse EphA4 with ephrin-A1.
Nilotinib is a kinase inhibitor that targets the following kinases: BCR-ABL, KIT, LCK, EPHA3, EPHA8, DDR1, DDR2, PDGFRB, MAPK11, and ZAK. Nilotinib is predicted to form hydrogen bonds with Q70 in the D-E loop and T104. It also has hydrophobic interactions with F154, V157, 1163, L166, A193, and V195.

Four compounds from US12290516B2, “Heterocyclic compounds as EphA4 inhibitors” (The Hong Kong University of Science and Technology, priority 2017, dated 2025) can be followed below.

For Retapamulin, the “inhibition of ephrin-A1-induced EphA4 clustering” value (“inhibition” for short) in the assay on EphA4 is recorded as 30%.

For `C[C@]12CC[C@H](O)CC1=CC[C@@H]1[C@@H]2CC[C@]2(C)C(c3cccnc3)=CC[C@@H]12` [abiraterone], the “inhibition” value with EphA4 was determined as 30%.

With `CN1CCC(=C2c3ccccc3C=Cc3ccccc32)CC1` [Cyproheptadine], the “inhibition” value in the assay on EphA4 is 30%.

`Cc1cn(-c2cc(NC(=O)c3ccc(C)c(Nc4nccc(-c5cccnc5)n4)c3)cc(C(F)(F)F)c2)cn1` [Nilotinib]: the “inhibition” value in the assay on EphA4 came to 30%. For the same compound, in assay [1], the IC50 stood at 70.7 µM.

The IC50 is the concentration needed to halve the response being measured.
